In paper PMC6664433 (Cancer discovery, 2019):

Key:
[1] = tested on: EGFR L858R/T790M/C797S genetically engineered mice; experiment: Pharmacodynamic study in GEM mice; type: in vivo; conditions: oral gavage once daily, 3 doses
[2] = molecular target: L858R/T790M EGFR (Homo sapiens, UniProt P00533, L858R/T790M); experiment: HTRF-based EGFR biochemical assay; conditions: read-out: IC50 (biochemical potency); enzyme 20pM, 100µM ATP
[3] = tested on: EGFR L858R/T790M/C797S genetically engineered mice; experiment: Efficacy study in GEM mice; type: in vivo
[4] = tested on: parental Ba/F3 cells; experiment: Ba/F3 cell proliferation; type: cell-based, murine; conditions: 72 hours
[5] = tested on: H1975 cells; experiment: Western blotting of EGFR, AKT, ERK1/2 phosphorylation; conditions: 4 hours, compared to osimertinib
[6] = tested on: Del_19-containing EGFR mutants; experiment: KINOMEscan kinome selectivity profiling; type: binding, human; conditions: 10µM
[7] = molecular target: TIE1 (Homo sapiens, UniProt P35590); experiment: KINOMEscan kinome selectivity profiling; type: binding; conditions: 10µM
[8] = tested on: H1975 xenograft mouse model; conditions: for tumor volume change at day 18: osimertinib 2.5mg/kg, JBJ-04-125-02 100mg/kg, or both
[9] = tested on: Ba/F3 cells containing the L858R/C797S mutation; experiment: Ba/F3 cell proliferation; type: cell-based, murine; conditions: compared to gefitinib
[10] = tested on: L858R/T790M Ba/F3 cells; experiment: ENU mutagenesis resistant colony assay; conditions: after ENU; 1μM osimertinib, 10μM JBJ-04-125-02, or combination; of 300 colonies
[11] = tested on: panel of 468 kinases; experiment: KINOMEscan kinome selectivity profiling; type: binding, human; conditions: 10µM, 35% cut-off
[12] = tested on: wild-type EGFR Ba/F3 cells; experiment: Ba/F3 cell proliferation; type: cell-based, murine; conditions: 72 hours
[13] = molecular target: MAP4K5 (Homo sapiens, UniProt Q9Y4K4); experiment: KINOMEscan kinome selectivity profiling; type: binding; conditions: 10µM
[14] = tested on: H3255GR cells; experiment: IncuCyte long-term confluency assay; type: cell-based, human; conditions: osimertinib 1μM, JBJ-04-125-02 10μM or both, 2 weeks of treatment
[15] = tested on: Ba/F3 cell lines stably transfected with EGFR L858R, L858R/T790M or L858R/T790M/C797S; experiment: Ba/F3 cell proliferation; type: cell-based, murine; conditions: single agent, 72 hours
[16] = Pharmacokinetic study; type: in vivo
[17] = tested on: Ba/F3 cells harboring EGFR Del_19 variants; experiment: Ba/F3 cell proliferation; type: cell-based, murine; conditions: 72 hours
[18] = tested on: H1975 cells; experiment: Cell viability assay; conditions: 72 hours
[19] = tested on: H3255GR cells; experiment: Cell viability assay; conditions: 72 hours
[20] = tested on: H3255GR cells; experiment: IncuCyte Caspase-3/7 apoptosis assay; type: cell-based, human; conditions: 0.1μM osimertinib, 10μM allosteric inhibitor, or both; 72 hours
[21] = molecular target: TIE2 (Homo sapiens, UniProt Q02763); experiment: KINOMEscan kinome selectivity profiling; type: binding; conditions: 10µM
[22] = tested on: H1975 xenograft mouse model; experiment: Pharmacodynamic study in H1975 xenograft; conditions: 3 doses; JBJ-04-125-02 100mg/kg, osimertinib 25mg/kg
[23] = tested on: EGFR-mutant NSCLC patients; conditions: cited from earlier work; for PFS: osimertinib vs comparator arm gefitinib or erlotinib; for median PFS: patients with an L858R mutation, comparator arm gefitinib or erlotinib
[24] = tested on: EGFR-mutant models; conditions: without cetuximab; cited from earlier work
[25] = tested on: EGFR; experiment: Biotinylated EAI045 pull-down assay; type: binding; conditions: following osimertinib treatment
[26] = tested on: patients with advanced EGFR mutant NSCLC; conditions: initial therapy; cited from earlier work
[27] = tested on: patients with EGFR T790M-mediated drug resistance; conditions: cited from earlier work

SMILES: O=C(Nc1nccs1)C(c1ccccc1)N1Cc2ccc(-c3ccc4[nH]ccc4c3)cc2C1=O (stereo not drawn) [JBJ-02-112-05]
- phosphorylation of EGFR and downstream signaling in tumors ([1]; 100mg/kg): also inhibited phosphorylation of EGFR and downstream signaling pathways although not as robustly as JBJ-04-125-02
- IC50 [2]: 15 nM
- change in tumor volume ([3]; 100mg/kg): ineffective

SMILES: O=C(Nc1nccs1)C(c1cc(F)ccc1O)N1Cc2ccc(-c3ccc(N4CCNCC4)cc3)cc2C1=O (stereo not drawn) [JBJ-04-125-02]
- inhibition of growth [4]: did not inhibit the growth
- EGFR and ERK1/2 phosphorylation [5]: downregulate EGFR and ERK1/2 phosphorylation more potently than osimertinib
- binding affinity [6]: lacks binding affinity
- % control [7]: 29 % control
- tumor volume change at day 18 [8]: minimal reduction in tumor volume
- tumor growth ([8]; osimertinib 25mg/kg, JBJ-04-125-02 100mg/kg, 35 days): tumor stasis and occasional shrinkage in some mice
- inhibition of cell proliferation [9]: not as potent as gefitinib in inhibiting cell proliferation
- resistant colonies [10]: 72%
- phosphorylation of EGFR, AKT and ERK1/2 in tumors ([1]; 50mg/kg and 100mg/kg): effectively inhibited phosphorylation of EGFR, AKT and ERK1/2
- S-Score (35) [11]: 0.02
- inhibition of growth [12]: did not inhibit the growth
- % control [13]: 9.5 % control
- confluency at 2 weeks [14]: reached full confluency
- inhibition of cell proliferation [15]: could inhibit cell proliferation as a single agent
- area under the curve (AUClast) ([16]; 3 mg/kg intravenous (IV) dose): 728577 ng·min/mL
- half-life ([16]; 3 mg/kg intravenous (IV) dose): 3 h
- average maximal plasma concentration ([16]; 20mg/kg oral dose): 1.1 µM
- oral bioavailability ([16]; 20mg/kg oral dose): 3%
- sensitivity of cell proliferation [17]: resistant
- concentration inhibiting cell proliferation [18]: low nanomolar concentrations
- sensitivity of cell proliferation [19]: resistant
- apoptosis (Caspase-3/7 activity) [20]: no more effective than DMSO
- % control [21]: 33 % control
- weight loss or signs of toxicity ([3]; 50mg/kg long-term treatment): not associated with weight loss or overt signs of toxicity
- change in tumor volume ([3]; 50mg/kg, within 4 weeks, sustained for 15 weeks): marked tumor regressions
- EGFR, AKT and ERK1/2 phosphorylation in tumors [22]: reduction in EGFR phosphorylation but only subtle changes in AKT and ERK1/2 phosphorylation

SMILES: C#Cc1cccc(Nc2ncnc3cc(OCCOC)c(OCCOC)cc23)c1 [erlotinib]
- PFS [23]: 10.2 months
- median PFS [23]: 9.5 months

SMILES: O=C(Nc1nccs1)C(c1cc(F)ccc1O)N1Cc2ccccc2C1=O (stereo not drawn) [EAI045]
- single agent efficacy [24]: not effective as a single agent
- co-binding with osimertinib [25]: did indeed co-bind with osimertinib and increase EGFR precipitation

SMILES: C=CC(=O)Nc1cc(Nc2nccc(-c3cn(C)c4ccccc34)n2)c(OC)cc1N(C)CCN(C)C [osimertinib, reference compound]
- tumor volume change at day 18 [8]: minimal reduction in tumor volume
- tumor regression ([8]; osimertinib 25mg/kg alone or with JBJ-04-125-02 100mg/kg, 28 days): ~100%
- PFS [26]: 19.3 months
- RR [26]: 77%
- PFS [23]: 18.9 months
- median PFS [23]: 14.4 months
- confluency at 2 weeks [14]: 24%
- sensitivity of cell proliferation [19]: sensitive
- progression free survivals (PFS) [27]: 9.9–12.3 months
- response rate (RR) [27]: 62–71%
- apoptosis (Caspase-3/7 activity) [20]: time-dependent increase in apoptosis
- EGFR, AKT and ERK1/2 phosphorylation in tumors [22]: complete inhibition of EGFR phosphorylation
